From ChEMBL document CHEMBL1201862, “PubChem BioAssay data set” (2004)
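Method: 48-hour compound exposure of cells in 96-well plates, five concentrations, linear interpolation of endpoints. Here, GI50 denotes the concentration required for 50% inhibition of growth.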 Activity calls are given as the source filed them. Rule as the data show it: active = GI50 up to about 1.1 µM and inactive = higher.

Key:
Test in all cases: inhibition of tumour cell growth, NCI panel, 48 h
[1] = tested on: 786-0
[2] = tested on: A498
[3] = tested on: BT-549
[4] = tested on: HCT-116
[5] = tested on: HT-29
[6] = tested on: LOX IMVI
[7] = tested on: M14
[8] = tested on: MDA-MB-231
[9] = tested on: NCI-H226
[10] = tested on: NCI-H23
[11] = tested on: OVCAR-8
[12] = tested on: RXF 393
[13] = tested on: SF-268
[14] = tested on: SK-MEL-2
[15] = tested on: SNB-75
[16] = tested on: T47D
[17] = tested on: UACC-257
[18] = tested on: UO-31
[19] = tested on: HCC 2998
[20] = tested on: HL-60

Measured: GI50

Cc1ccc(S(=O)(=O)Nc2ccccc2C(=O)c2ccc(C)c(C)c2)cc1
inactive: [1] > 100 µM | [2] 94.6 µM | [3] > 100 µM | [4] > 100 µM | [5] > 100 µM | [6] > 100 µM | [7] > 100 µM | [8] > 100 µM | [9] > 100 µM | [10] > 100 µM | [11] > 100 µM | [12] > 100 µM | [13] > 100 µM | [14] > 100 µM | [15] > 100 µM | [16] 71.1 µM | [17] 53.1 µM | [18] > 100 µM

COc1ccc(C=O)cc1Oc1ccc(C[C@H]2c3c(cc(OC)c4c3Oc3cc5c(cc3O4)CCN(C)C5=O)CCN2C)cc1
inactive: [1] 8.61 µM | [2] 20.1 µM | [19] 8.28 µM | [4] 7.05 µM | [20] 8.85 µM | [5] 7.52 µM | [6] 9.29 µM | [7] 8.65 µM | [8] 7.6 µM | [9] 8.59 µM | [10] 7.14 µM | [11] 7.87 µM | [12] 3.59 µM | [13] 10.3 µM | [14] 11.5 µM | [15] 7.29 µM | [16] 33.7 µM | [17] 8.04 µM | [18] 7.93 µM

COc1cc2c(cc1OC)C1c3ccccc3CCN1CC2 (stereo unspecified)
inactive: [1] > 100 µM | [2] > 100 µM | [19] 43.6 µM | [4] 36.8 µM | [20] 30.4 µM | [5] 28.5 µM | [6] 48.6 µM | [7] 45 µM | [8] 68.7 µM | [9] 41.2 µM | [10] 63.5 µM | [11] > 100 µM | [12] > 100 µM | [13] > 100 µM | [14] > 100 µM | [15] 44.6 µM | [16] 75.9 µM | [17] > 100 µM

Cc1cccc(/C(Br)=C2/OC(=O)c3ccccc32)c1
inactive: [1] > 100 µM | [2] > 100 µM | [3] > 100 µM | [19] > 100 µM | [4] > 100 µM | [20] > 10 µM | [5] > 100 µM | [7] > 100 µM | [10] > 100 µM | [11] > 100 µM | [12] > 100 µM | [13] > 100 µM | [15] > 100 µM | [17] > 100 µM

CSc1nc2c(c(=O)[nH]1)N=C(c1ccc([N+](=O)[O-])cc1)CC(c1ccccc1)N2 (stereo unspecified)
inactive: [1] 34.7 µM | [2] > 100 µM | [3] 37.7 µM | [19] 22.5 µM | [4] 21.4 µM | [20] 14.7 µM | [5] 20.3 µM | [6] 28.1 µM | [7] 29.7 µM | [8] 32.3 µM | [9] > 100 µM | [10] 41.3 µM | [11] 34.5 µM | [12] 23.2 µM | [14] 28.3 µM | [15] 22.7 µM | [17] 44.9 µM | [18] 50 µM

O=C(COc1ccc(OCC(=O)N2C(=O)CC(=O)N(c3ccc(Cl)cc3)C2=S)cc1)N1C(=O)CC(=O)N(c2ccc(Cl)cc2)C1=S
inactive: [1] 19.6 µM | [2] 47.3 µM | [3] 23.3 µM | [19] 28.5 µM | [4] 10.1 µM | [5] 24.6 µM | [7] 32 µM | [8] 27.9 µM | [9] 26.6 µM | [10] 25.8 µM | [12] 31.6 µM | [13] 40.4 µM | [14] 26.3 µM | [15] 72.9 µM | [17] 36.1 µM | [18] 31.7 µM

O=C(O)c1ccc(Nc2nc3cc(C(F)(F)F)ccc3nc2-c2ccccc2)cc1
inactive: [1] 18.7 µM | [3] 62.5 µM | [19] 16.7 µM | [4] 22.8 µM | [20] 27.7 µM | [5] 14.1 µM | [6] 15.2 µM | [8] 32.1 µM | [9] 25 µM | [10] 19 µM | [11] 27.9 µM | [12] 24 µM | [13] 48.8 µM | [15] 18.3 µM | [16] 7.26 µM | [17] 35.3 µM | [18] 17.1 µM

O=C(Nc1ccccc1)OCCN=C1c2ccccc2CCc2ccccc21
inactive: [1] 32.6 µM | [3] 21 µM | [19] 27.5 µM | [4] 14.6 µM | [20] 13.8 µM | [5] 18.5 µM | [6] 20 µM | [7] 21.8 µM | [8] 15.1 µM | [9] 29.4 µM | [10] 55.2 µM | [11] 31.5 µM | [12] 19.4 µM | [13] 25.6 µM | [14] 15 µM | [15] 11.9 µM | [16] 15.3 µM | [17] 23.1 µM | [18] 17.3 µM

CCOC(=O)N1C=CC(=C2C(=C3C=CN(C(=O)OCC)C=C3)C(=C3C=CN(C(=O)OCC)C=C3)C2=C2C=CN(C(=O)OCC)C=C2)C=C1
inactive: [1] 28.6 µM | [3] 40.5 µM | [4] 11.1 µM | [20] 33 µM | [5] 22.2 µM | [6] 12.2 µM | [7] 28.3 µM | [8] 10.4 µM | [9] 22.3 µM | [10] 26.2 µM | [11] 27.1 µM | [12] 51.5 µM | [13] 31.5 µM | [14] 26.8 µM | [15] 47.1 µM | [16] 36.5 µM | [17] 34.1 µM | [18] 12.9 µM

COC(=O)C(=O)C(C(=O)C(=O)Nc1ccc(C)cc1C)c1nc2ccc(Cl)cc2nc1O (stereo unspecified)
inactive: [1] > 100 µM | [3] > 100 µM | [19] > 100 µM | [4] > 100 µM | [20] 78 µM | [5] > 100 µM | [6] > 100 µM | [7] > 100 µM | [8] > 100 µM | [9] > 100 µM | [10] > 100 µM | [11] > 100 µM | [12] > 100 µM | [13] > 100 µM | [14] > 100 µM | [15] > 100 µM | [17] > 100 µM | [18] 47.6 µM

COc1ccc(CCN2CCc3c(C)c(C#N)c4nc5ccccc5n4c32)cc1OC
inactive: [1] 56.8 µM | [2] 54.6 µM | [3] 27.2 µM | [19] 40.7 µM | [4] 28.7 µM | [20] 33.9 µM | [5] 32.6 µM | [6] 37.7 µM | [7] > 100 µM | [8] 19.1 µM | [9] 27.5 µM | [10] 45.3 µM | [11] 35.3 µM | [12] 30.8 µM | [13] 35.1 µM | [14] 16.3 µM | [15] 24.8 µM | [17] 33.2 µM | [18] 36.3 µM

c1ccc(/N=C(\N2CCOCC2)N(CCN2CCOCC2)c2ccccc2)cc1
inactive: [1] > 100 µM | [3] > 100 µM | [19] > 100 µM | [4] 98.2 µM | [20] > 10 µM | [5] > 100 µM | [6] > 100 µM | [7] > 100 µM | [8] > 100 µM | [9] > 100 µM | [10] > 100 µM | [11] > 100 µM | [12] > 100 µM | [13] > 100 µM | [14] > 100 µM | [15] > 100 µM | [16] > 100 µM | [17] > 100 µM | [18] 45.2 µM

CCCCC/C(=N\c1[nH]cnc1C(N)=O)OCC
inactive: [1] > 100 µM | [2] > 100 µM | [3] > 100 µM | [19] > 100 µM | [4] > 100 µM | [20] > 100 µM | [5] > 100 µM | [6] > 100 µM | [7] 94.2 µM | [8] > 100 µM | [9] > 100 µM | [10] > 100 µM | [11] > 100 µM | [12] > 100 µM | [13] > 100 µM | [14] > 100 µM | [17] > 100 µM | [18] 55.5 µM

CN(CCC(=O)N1CC(CCl)c2ccc([N+](=O)[O-])cc21)CCC(=O)N1CC(CCl)c2ccc([N+](=O)[O-])cc21 (stereo unspecified)
inactive: [1] 10.9 µM | [2] 19.3 µM | [3] 23.6 µM | [19] 5.79 µM | [4] 12.6 µM | [5] 11.7 µM | [6] 7.87 µM | [7] 10.1 µM | [8] 16.7 µM | [9] 6.95 µM | [10] 14.7 µM | [11] 14.3 µM | [13] 12.1 µM | [14] 13.2 µM | [15] 2.56 µM | [16] 25.1 µM | [17] 9.2 µM

COc1ccccc1/N=N/c1c(O)c(S(=O)(=O)O)cc2cc(S(=O)(=O)O)ccc12
inactive: [1] > 100 µM | [2] > 100 µM | [3] > 100 µM | [4] > 100 µM | [5] > 100 µM | [6] > 100 µM | [7] > 100 µM | [8] > 100 µM | [9] > 100 µM | [10] > 100 µM | [11] > 100 µM | [12] > 100 µM | [13] > 100 µM | [14] 53.5 µM | [15] > 100 µM | [16] > 100 µM | [17] > 100 µM | [18] > 100 µM
